Data from patent publication US20190125735A1, “INHIBITION OF P38 MAPK FOR THE TREATMENT OF CANCER” (Board of Regents, The University of Texas System, priority 2015, published 2019).
“Also recorded” adds a separate entry of the source.

Legend:
[1] = test system: HMLE-Snail and HMLE-Twist cells; experiment: Invadopodia formation, degradation of FITC-conjugated gelatin; assay type: cell-based, human; settings: within 16 h, vs vehicle-treated cells
Method: (§1) FIGS. 15A-15L: p38 inhibition compromises the acquisition and maintenance of EMT and stem cell properties in vitro. […] Cells were harvested and the corresponding lysates were analyzed by immunoblotting for FOXC2, E-cadherin and mesenchymal markers. β-actin was used as a loading control. […] Cells were harvested at the indicated timepoints and the corresponding lysates were analyzed by immunoblotting for FOXC2, E-cadherin and mesenchymal markers. β-actin was used as a loading control. […] One thousand cells were seeded per well in ultra-low attachment plates and cultured for 7-10 days. Spheres with a diameter greater than 75 μm were counted. The data are reported as the number of spheres formed/1000 seeded cells±SEM. […] Data are presented as mean±SEM. […] The corresponding lysates were analyzed by immunoblotting for FOXC2, E-cadherin and mesenchymal markers. β-actin was used as a loading control. (F) The sphere-forming efficiency of 4-OHT-treated HMLE-Twist-ER cells, transduced with control shRNA (shControl) or p38 shRNA (shp38), was determined. […] (H) The sphere-forming efficiency of the indicated cells was determined in the presence of vehicle or SB203580. […] (J) The relative wound closure by the indicated cells, treated with vehicle or SB203580, was measured by image analysis and represented in a graphical format. […] Degradation of FITC-gelatin was quantified by image analysis. n=150 cells/sample. […]

mesenchymal cells = experiment: Scratch/wound-healing assay of mesenchymal mammary cells; assay type: cell-based, human
Source text: The effects of p38 inhibition on invasive potential, which strongly correlates with the formation of invadopodia, was investigated. These specialized actin-based cell membrane protrusions secrete matrix metalloproteinases, enabling degradation of the nearby extracellular matrix (Eckert et al., 2011). The formation of invadopodia was quantified by assessing the ability of cells to degrade FITC-conjugated gelatin.
Quantification of invadopodia (Eckert et al., 2011), scratch/wound-healing assays (Sarkar et al., 2015) fluorescence-activated cell sorting (FACS), and sphere-formation assays (Mani et al., 2008) were conducted as described previously.

BCR-ABL+ mouse ALL cells = settings: MSC co-culture
Method: Leukemic cell apoptosis was analyzed by flow cytometry using BD LSRFortessa or Accuri C6 flow cytometer (BD Biosciences) after the cells were stained with Annexin V (BD Biosciences, San Jose, Calif.). Data were analyzed by FlowJo software (Ashland, Oreg.).

[2] = test system: BCR-ABL+ mouse ALL cells seeded on MSCs; experiment: Post-screening leukemic cell cluster formation underneath pretreated MSCs; assay type: cell-based; settings: imatinib 5 μM with SB203580 20 μM or dexamethasone 50 nM, 4 days + 24 hours
Source text: (§2) Phase-contrast images of co-cultured MSCs and ALL cells were obtained using an Axio Observer.Z1 microscope, an AxioCam MR camera, and AxioVision software (Zeiss, Oberkochen, Germany). For screening, a cluster was defined as a group of more than five leukemic cells under the MSCs. The total number of leukemic cell clusters was the average number of clusters from three different fields (10× objective). For post-screening experiments, a cluster was defined as a group of more than 10 leukemic cells under the MSCs. The total number of leukemic cell clusters was the average number of clusters from 10 different fields (10× objective).

[3] = test system: BCR-ABL+ mouse ALL cells seeded on MSCs (OP9 cells); experiment: Clinical compound library screen, imatinib-pretreated MSC / BCR-ABL+ ALL cell co-culture; assay type: cell-based
Method: The effectiveness of the compounds was determined in preventing cluster formation by microscopy and the toxicity of the compounds by bioluminescence imaging of co-cultured MSCs and leukemic cells.
The clinical compounds library was purchased from the John S. Dunn Gulf Coast Consortium for Chemical Genomics (Houston, Tex.). […] Then, luciferase-labeled BCR-ABL+ mouse ALL cells were seeded on to the MSCs. Treatment was continued for 1 day, and the samples were evaluated via phase-contrast microscopy for the formation of leukemic cell clusters underneath the pretreated MSCs. To determine the compounds' toxicity in MSCs or leukemic cells, we examined the MSC/ALL cell co-cultures via microscopy and/or bioluminescence imaging.
as §2

[4] = test system: HMLE-Snail-ER and HMLE-Twist-ER cells; experiment: FACS CD44high/CD24low of 4-OHT-treated HMLE-Snail-ER and HMLE-Twist-ER cells; assay type: cell-based, human; settings: 4-OHT-treated cells, SB203580 exposure
Method: as §1

With `C[S+]([O-])c1ccc(-c2nc(-c3ccc(F)cc3)c(-c3ccncc3)[nH]2)cc1` (stereo not drawn) [SB203580, 4-(4-Fluorophenyl)-2-(4-methylsulfinylphenyl)-5-(4-pyridyl) 1H-imidazole] the “Degradation of underlying extracellular matrix (FITC-gelatin)” value [1] was “failed to do so to the same degree”, the Migratory capacity (mesenchymal cells) was “markedly reduced the migratory capacity of mesenchymal cells” and the “Apoptosis of leukemic cells” value (BCR-ABL+ mouse ALL cells) was “did not affect proliferation or apoptosis of leukemic cells”. The “Leukemic cell clusters underneath imatinib-pretreated MSCs” value [2] was “completely prevented leukemic cell cluster formation”, the “Imatinib-induced leukemic cell cluster formation” value [3] was “directly prevented imatinib-induced leukemic cell cluster formation; also recorded: potently inhibited the formation of imatinib-induced leukemic cell clusters” and the “CD44^high/CD24^low marker profile” value [4] was “failed to acquire”.
